The nature of series [1]: Oxidation stability of reduced coenzyme Q10 ethanol solution with L-ascorbic acid, stirred in air at 50° C. To be noted: 1 part L-ascorbic acid per 100 parts solvent, after 50 hours. Format: physicochemical. As to the method:
In the examples, purity of reduced coenzyme Q10 and the weight ratio of reduced coenzyme Q10/oxidized coenzyme Q10 were determined by the HFLC analysis specified below. The reduced coenzyme Q10 purity values as determined, however, are by no means indicative of the limit purity value attainable in accordance with the present invention. Likewise, the ratio of the reduced coenzyme Q10 in the weight ratio of reduced coenzyme Q10/oxidized coenzyme Q10 values obtained never indicates the upper limit to that ratio.
Column; SYMMETRY C18 (product of Waters), 250 mm (in length), 4.6 mm (in inside diameter): mobile phase; C2H5OH/CH3OH=4/3 (v/v); detection wavelength; 210 nm; flow rate; 1 ml/min: retention time of reduced coenzyme Q10; 9.1 min: retention time of oxidized coenzyme Q10; 13.3 min.
Using the reduced coenzyme Q10 crystal obtained in Example 1, an ethanol solution containing 5 parts by weight of reduced coenzyme Q10 relative to 100 parts by weight of ethanol was prepared. To this ethanol solution, L-ascorbic acid was added so that 1 part by weight of L-ascorbic acid was contained relative to 100 parts by weight of the solvent (20 parts by weight relative to 100 parts by weight of reduced coenzyme Q10), and the solution was stirred in air at 50° C. […]

Series [2] in a line: Preliminary investigations on stabilization of reduced coenzyme Q10. The series is classed as physicochemical.

Take `O=C1O[C@H]([C@@H](O)CO)C(O)=C1O` [L-ascorbic acid]: the “X: The residual ratio of ascorbic acid” value in series [1] was 85.2%.
Take `O=C1O[C@H]([C@@H](O)CO)C(O)=C1O` [vitamin C]: the “stabilization effect on reduced coenzyme Q10” value in series [2] (preliminary investigations) was “has a stabilization effect”; in series [2] (used in combination with polyhydric alcohols having 3 or more OH, such as glycerine), “very poor”.
Regarding Vitamin E [reference compound], the “stabilization effect on reduced coenzyme Q10” value in series [2] (preliminary investigations) is “does not have the effect”.

The record behind these values is US9532957B2, “Method of stabilizing reduced coenzyme Q10” (Kaneka Corporation, priority 2001, dated 2017).
